Here are results for 4 compounds from patent US20250136722A1, “CYTOTOXICITY TARGETING CHIMERAS” (GLAXOSMITHKLINE INTELLECTUAL PROPERTY DEVELOPMENT LIMITED, priority 2021, published 2025).

Several values for one entry are separate records, joined by “and”; a condition that tells them apart may be missing. Identical values can stand only once.

In experiment [1] the test system is endogenous target monocytes in human PBMC. The experiment in a line: PBMC ex vivo monocyte depletion flow cytometry assay (Example 200). Format: cell-based. The settings on record: with anti-cotinine antibody SEQ ID NO: 11/12, 18-24 hours, read-out: Ex Vivo Depletion Assay pEC50 (converted). The protocol: A human PBMC (peripheral blood mononuclear cells) monocyte depletion flow cytometry assay was developed to screen compounds in a 384-well plate format. This assay incorporated endogenous natural killer cells to deplete endogenous target monocytes.
To screen compounds in the human PBMC monocyte depletion flow cytometry assay, 11-point dose-response curves were made from 1 mM stocks in neat DMSO by serially diluting an ARM compound of Formula (I) four-fold into a 384-well plate row-wise. These serially diluted compounds were then stamped into a flat bottom polypropylene 384-well plate (Greiner Bio-One) at 100 nL/well. Fifty microliters of 30 μg/mL anti-cotinine antibody having a heavy chain sequence of SEQ ID NO: 11 and a light chain sequence of SEQ ID NO: 12 (rabbit variable region with human IgG1 Fc domain containing a DE mutation (S239D/1332E)) that had been diluted in assay medium (RPMI 1640 (Gibco) containing 10% fetal bovine serum (Gibco), 1% Glutamax (Gibco) and 1% sodium pyruvate (Corning) was added to the wells of the plate. The plate was centrifuged for 1 min at 500 rpm (revolutions per minute) and then shaken for 5 min at room temperature. The plate was incubated for 15 minutes at 37° C./5% CO2.
Frozen PBMC cells (HemaCare BioResearch) were thawed and centrifuged at 1,200 rpm for 4 minutes. The cells were diluted to a cell density of 2×10^6 cells/mL in assay medium. Fifty microliters of the diluted cells were added to the wells of the plate. The plate was centrifuged for 1 min at 500 rpm and incubated for 18-24 hours at 37° C./5% CO2.
After 18-24 hours incubation, 2 μL of 6.25 μg human FC block (BD Pharmingen) that was diluted in assay medium was added to the wells of the plate. The plate was centrifuged for 1 minute at 500 rpm and then incubated at room temperature for 15 minutes. Five microliters of 750 nM Helix NP NIR (Biolegend) that had been diluted in assay medium was added to the wells of the plate. Nine microliters of antibody cocktail containing 1/5 diluted fluorescein isothiocyanate (FITC) labeled anti-CD45 antibody (Beckman Coulter), PC7 labeled anti-CD14 antibody (Beckman Coulter) and phycoerythrin (PE) anti-CD4 antibody (Beckman Coulter) was then added to the wells of the plate. The plate was centrifuged for 1 min at 500 rpm and incubated for 30 minutes at 4-8° C. Samples from the plate were run on BD FACS Canto II flow cytometer and data was analyzed using FlowJo software.
ARMs compounds of Formula (I) of the invention were tested for the ability to deplete monocytes in the above assay in one or more experimental runs and the results are shown in Table 3 below. Potency of the compounds of the invention is reported as a pEC50 value. The pEC50 value is the negative log of the EC50 value, wherein the EC50 value is the half maximal effective concentration measured in molar (M). For compounds tested in more than one experimental run, the pEC50 value is reported as an average or as the individual values measured
(A flow cytometer gives signals particle by particle.)

Experiment [2] concerns Anti-cotinine antibody SEQ ID NO: 9 / SEQ ID NO: 10 (humanized version). Briefly: Binding of humanized anti-cotinine antibody to ARM compounds by SPR, Biacore 8k, 25° C. (Example 202). The settings on record: top concentration 2.50E−08 M. The text has this: Anti-cotinine antibodies having a heavy chain sequence of SEQ ID NO: 9 and a light chain sequence of SEQ ID NO: 10 (humanized version) or a heavy chain sequence of SEQ ID NO: 11 and a light chain sequence of SEQ ID NO: 12 (rabbit version) were captured via the Fc domain to a protein A or A/G surface on flow cell 2 of a CM5 sensor chip using the Biacore 8k.
After antibody capture, a 1500 second wait step was included to reduce drift in the binding step. ARM compounds of Formula (I) were then flowed over the captured antibodies at varying top concentrations ranging from 250 nM to 4 μM (see Table 6 below for top concentration values). The top concentration was diluted 4-fold over 5 dilutions (with a 0 nM compound cycle included to blank subtract the data). Association and dissociation times of the ARMs compounds of Formula (I) varied between experiments as follows and indicated in Table 6 below: reference 1—association for 600 seconds and dissociation for 1200 seconds at 20 μl/min; reference 2—association for 240 seconds and dissociation for 300 seconds at 30 μl/min; reference 3—association for 360 seconds and dissociation for 600 seconds at 30 μl/min. Anti-cotinine antibody bound to the protein A or A/G surface was regenerated using 50 mM NaOH. Experiments were run at 25° C. at pH 7.4 using HBS-EP+ buffer using Biacore 8K control software and evaluated using Biacore Insight Evaluation software. Curves were fit with the 1:1 kinetic fit inherent to the software, utilising a local Rmax and local drift setting.
Anti-cotinine antibody was tested for binding to ARMs compounds of Formula (I) of the invention in the above assay in or more experimental runs and the results are shown in Table 6 below. Affinity is reported as a pKd value. The pKd value is the negative log of the Kd value, wherein the Kd value is the dissociation constant measured in molar (M) as noted above. For compounds tested in more than one experimental run, the pKd value is reported as an average.
In general terms: Surface plasmon resonance follows binding to a sensor surface in real time, without labels.

Where [3] appears, read: reference 3: association 360 s, dissociation 600 s at 30 μl/min.

For `CN1C(=O)C[C@H](C(=O)NCCOCCOCCOCCOCCOCCC(=O)N[C@@H]2C[C@H](NC(C)(C)C)CC[C@@H]2N2CC[C@H](Nc3ncnc4ccc(C(F)(F)F)cc34)C2=O)[C@H]1c1cccnc1` [Example 37], the EC50 in experiment [1] is 5.01 nM.

The term pKd denotes −log10 of the Kd, conventionally taken in molar units. Higher therefore signals a low Kd. Consider `CN1C(=O)C[C@H](C(=O)NCCO[C@H]2CC[C@H](OCCCC(=O)N[C@H]3CC[C@H](C(=O)N[C@@H]4C[C@H](NC(C)(C)C)CC[C@@H]4N4CC[C@H](Nc5ncnc6ccc(C(F)(F)F)cc56)C4=O)CC3)CC2)[C@H]1c1cccnc1` [Example 10], for which, in experiment [2] (setting [3]), the ka turned out to be 1.42e+06 M⁻¹ s⁻¹, the kd was 0.000484 s⁻¹ and the negative-log Kd (pKd) worked out at 9.47.

In the case of `CN1C(=O)C[C@H](C(=O)NCCOCCOCCOCCOCCOCCOCCC(=O)N[C@@H]2C[C@H](NC(C)(C)C)CC[C@@H]2N2CC[C@H](Nc3ncnc4ccc(C(F)(F)F)cc34)C2=O)[C@H]1c1cccnc1` [Example 38], in experiment [1], the EC50 was 1.58 nM.

For `CC(C)N(C)[C@@H]1CC[C@H](N2CC[C@H](Nc3ncnc4ccc(C(F)(F)F)cc34)C2=O)[C@H](NC(=O)[C@H]2CC[C@H](NC(=O)CCCO[C@H]3CC[C@H](OCCNC(=O)[C@H]4CC(=O)N(C)[C@@H]4c4cccnc4)CC3)CC2)C1` [Example 1, (2S,3S)-N-(2-(((1R,4S)-4-(4-(((1R,4R)-4-(((1R,2S,5R)-5-(Isopropyl(methyl)amino)-2-((S)-2-oxo-3-((6-(trifluoromethyl)quinazolin-4-yl)amino)pyrrolidin-1-yl)cyclohexyl)carbamoyl)cyclohexyl)amino)-4-oxobutoxy)cyclohexyl)oxy)ethyl)-1-methyl-5-oxo-2-(pyridin-3-yl)pyrrolidine-3-carboxamide], the kd in experiment [2] (reference 1: association 600 s, dissociation 1200 s at 20 μl/min) is 0.000456 s⁻¹ and 0.000649 s⁻¹. In experiment [2] (setting [3]), the ka is 1.64e+06 M⁻¹ s⁻¹, the kd is 0.000414 s⁻¹ and the negative logarithm of the Kd (pKd) is 9.6.
